Data set [1] can be described thus: Clearance in dog plasma. In kind it is ADME, cell-free, Canis lupus familiaris.
Data set [2] can be described thus: Half life in dog. In kind it is ADME, Canis lupus familiaris. The conditions noted are these: in vivo.
Data set [3] can be described thus: Lipophilicity, logD of the compound. In kind it is physicochemical. The conditions noted are these: octanol/water.
The nature of data set [4]: Volume of distribution in dog. In kind it is ADME, Canis lupus familiaris. The conditions noted are these: in vivo.
The nature of data set [5]: Half life in rat liver microsomes. In kind it is ADME.
A short description of data set [6]: Volume of distribution in rat. In kind it is ADME. The conditions noted are these: in vivo.
The nature of data set [7]: Clearance in rat plasma. Type of data set: ADME, cell-free.
The nature of data set [8]: Half life in human liver microsomes. In kind it is ADME.
Data set [9] is described as follows: Half life in rat. In kind it is ADME. The conditions noted are these: in vivo.
For data set [10], the system named is MDR1 (human MDR1 or rat MDR1a). Kind of data set: Apparent permeability of the compound in pig LLC-PK1 cells expressing human MDR1 or rat MDR1a. Type of data set: ADME, cell-based, Sus scrofa.

The structures appear in SMILES notation.

In general, clearance refers to the rate of elimination divided by the concentration. Higher therefore signals a high capacity for elimination. Usually half-life stands for the time needed for the level to fall by half in the phase considered. Lower therefore signals rapid decline. In general, logD refers to lipophilicity at a set pH, counting ionised and neutral species. Read a low logD as lower lipophilicity. Usually Vd stands for the apparent volume that relates the amount in the body to the concentration in plasma or blood. Low readings indicate little distribution into tissue, high ones wide distribution into tissue. A word on the Papp: it is a coefficient for how fast a substance crosses the barrier.

In the case of `CC1(C)C(=O)N([C@H]2CCc3c(O)cccc32)c2nc(Nc3ccccc3)ncc21`, the clearance was 68 mL/min/kg in data set [1] and 341 mL/min/kg in data set [7]. Moreover, the half-life was 48 min in data set [2], 9 min in data set [5], 10 min in data set [8] and 48 min in data set [9]. Besides, the pH-dependent lipophilicity (logD) in data set [3] is 2.92. In addition, the distribution volume (Vd) in data set [4] is 4 L/kg; in data set [6] it was 16.2 L/kg.

With `CC1(C)C(=O)N(C2CCCCC2)c2nc(Nc3ccccc3)ncc21`, the Papp in [10] worked out at 12 ×10⁻⁶ cm/s.

(Values after ChEMBL document CHEMBL3875183, “Structure guided design of a series of selective pyrrolopyrimidinone MARK inhibitors” (Bioorg Med Chem Lett, 2017).)
